Laboratory results: patent publication US20070281992A1, “COMBINATION OF GYRASE B INHIBITORS AND PROTEIN SYNTHESIS INHIBITORS AND USES THEREOF” (priority 2006, published 2007)
Where two headings read alike, the source gives them in different places.

What was measured:
[1] = tested on: Methicillin-Susceptible Staphylococcus aureus Isolates; assay: MIC assay (NCCLS broth dilution), MSSA clinical isolates; format: cell-based; settings: for MIC: Staphylococcus aureus
How it was run: (§1)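 Staphylococcal isolates and QC strains (S. aureus ATCC 29213, E. faecalis ATCC 29212) tested by NCCLS broth dilution in Mueller Hinton II broth. Agents run as 11 two-fold serial dilutions, with novobiocin combined with tetracycline or minocycline at 2.5:1. Vancomycin was the control.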

[2] = tested on: Methicillin-Resistant Staphylococcus aureus Isolates; assay: MIC assay (NCCLS broth dilution), MRSA clinical isolates; format: cell-based; settings: for MIC: Staphylococcus aureus
How it was run: as §1

CN[C@H](CC(C)C)C(=O)N[C@H]1C(=O)N[C@@H](CC(N)=O)C(=O)N[C@H]2C(=O)N[C@H]3C(=O)N[C@H](C(=O)N[C@H](C(=O)O)c4cc(O)cc(O)c4-c4cc3ccc4O)[C@H](O)c3ccc(c(Cl)c3)Oc3cc2cc(c3O[C@@H]2O[C@H](CO)[C@@H](O)[C@H](O)[C@H]2O[C@H]2C[C@](C)(N)[C@H](O)[C@H](C)O2)Oc2ccc(cc2Cl)[C@H]1O [VA, vancomycin]
MIC Range ([1]; 52 MSSA isolates, Mueller Hinton II Broth, combinations at 2.5:1, given as NB/partner): .5 to 1 µg/mL
MIC ([1]; read-out: Minimal Inhibitory Concentration, MSSA isolate 133, 03MAR06): 0.5 µg/mL
MIC ([1]; read-out: Minimal Inhibitory Concentration, MSSA isolate 134, 03MAR06): 0.5 µg/mL
MIC ([1]; read-out: Minimal Inhibitory Concentration, MSSA isolate 135, 03MAR06): 1 µg/mL
MIC ([1]; read-out: Minimal Inhibitory Concentration, MSSA isolate 753, 22FEB06): 0.5 µg/mL
MIC ([1]; read-out: Minimal Inhibitory Concentration, MSSA isolate 754, 22FEB06): 0.5 µg/mL
MIC ([1]; read-out: Minimal Inhibitory Concentration, MSSA isolate 754, 24FEB06): 0.5 µg/mL
MIC ([1]; read-out: Minimal Inhibitory Concentration, MSSA isolate 755, 22FEB06): 1 µg/mL
MIC ([1]; read-out: Minimal Inhibitory Concentration, MSSA isolate 756, 03MAR06): 0.5 µg/mL
MIC ([1]; read-out: Minimal Inhibitory Concentration, MSSA isolate 779, 22FEB06): 0.5 µg/mL
MIC ([1]; read-out: Minimal Inhibitory Concentration, MSSA isolate 780, 03MAR06): 1 µg/mL
MIC ([1]; read-out: Minimal Inhibitory Concentration, MSSA isolate 781, 03MAR06): 0.5 µg/mL
MIC ([1]; read-out: Minimal Inhibitory Concentration, MSSA isolate 782, 22FEB06): 1 µg/mL
MIC ([1]; read-out: Minimal Inhibitory Concentration, MSSA isolate 783, 22FEB06): 1 µg/mL
MIC ([1]; read-out: Minimal Inhibitory Concentration, MSSA isolate 784, 22FEB06): 0.5 µg/mL
MIC ([1]; read-out: Minimal Inhibitory Concentration, MSSA isolate 785, 22FEB06): 0.5 µg/mL
MIC ([1]; read-out: Minimal Inhibitory Concentration, MSSA isolate 786, 22FEB06): 0.5 µg/mL
MIC ([1]; read-out: Minimal Inhibitory Concentration, MSSA isolate 787, 22FEB06): 0.5 µg/mL
MIC ([1]; read-out: Minimal Inhibitory Concentration, MSSA isolate 788, 22FEB06): 0.5 µg/mL
MIC ([1]; read-out: Minimal Inhibitory Concentration, MSSA isolate 789, 24FEB06): 1 µg/mL
MIC ([1]; read-out: Minimal Inhibitory Concentration, MSSA isolate 790, 24FEB06): 0.5 µg/mL
MIC ([1]; read-out: Minimal Inhibitory Concentration, MSSA isolate 791, 24FEB06): 0.5 µg/mL
MIC ([1]; read-out: Minimal Inhibitory Concentration, MSSA isolate 792, 03MAR06): 0.5 µg/mL
MIC ([1]; read-out: Minimal Inhibitory Concentration, MSSA isolate 793, 24FEB06): 0.5 µg/mL
MIC ([1]; read-out: Minimal Inhibitory Concentration, MSSA isolate 794, 24FEB06): 1 µg/mL
MIC ([1]; read-out: Minimal Inhibitory Concentration, MSSA isolate 994, 22FEB06): 1 µg/mL
MIC ([1]; read-out: Minimal Inhibitory Concentration, MSSA isolate 995, 03MAR06): 1 µg/mL
MIC ([1]; read-out: Minimal Inhibitory Concentration, MSSA isolate 996, 22FEB06): 0.5 µg/mL
MIC ([1]; read-out: Minimal Inhibitory Concentration, MSSA isolate 997, 22FEB06): 1 µg/mL
MIC ([1]; read-out: Minimal Inhibitory Concentration, MSSA isolate 998, 03MAR06): 1 µg/mL
MIC ([1]; read-out: Minimal Inhibitory Concentration, MSSA isolate 999, 22FEB06): 0.5 µg/mL
MIC ([1]; read-out: Minimal Inhibitory Concentration, MSSA isolate 1000, 24FEB06): 1 µg/mL
MIC ([1]; read-out: Minimal Inhibitory Concentration, MSSA isolate 1001, 24FEB06): 1 µg/mL
MIC ([1]; read-out: Minimal Inhibitory Concentration, MSSA isolate 1002, 24FEB06): 0.5 µg/mL
MIC ([1]; read-out: Minimal Inhibitory Concentration, MSSA isolate 1003, 03MAR06): 0.5 µg/mL
MIC ([1]; read-out: Minimal Inhibitory Concentration, MSSA isolate 1005, 24FEB06): 1 µg/mL
MIC ([1]; read-out: Minimal Inhibitory Concentration, MSSA isolate 1006, 24FEB06): 1 µg/mL
MIC ([1]; read-out: Minimal Inhibitory Concentration, MSSA isolate 1007, 24FEB06): 1 µg/mL
MIC ([1]; read-out: Minimal Inhibitory Concentration, MSSA isolate 1008, 24FEB06): 0.5 µg/mL
MIC ([1]; read-out: Minimal Inhibitory Concentration, MSSA isolate 1009, 24FEB06): 0.5 µg/mL
MIC ([1]; read-out: Minimal Inhibitory Concentration, MSSA isolate 1131, 24FEB06): 1 µg/mL
MIC ([1]; read-out: Minimal Inhibitory Concentration, MSSA isolate 1132, 03MAR06): 0.5 µg/mL
MIC ([1]; read-out: Minimal Inhibitory Concentration, MSSA isolate 1133, 24FEB06): 0.5 µg/mL
MIC ([1]; read-out: Minimal Inhibitory Concentration, MSSA isolate 1134, 24FEB06): 0.5 µg/mL
MIC ([1]; read-out: Minimal Inhibitory Concentration, MSSA isolate 1654, 03MAR06): 0.5 µg/mL
MIC ([1]; read-out: Minimal Inhibitory Concentration, MSSA isolate 1656, 03MAR06): 0.5 µg/mL
MIC ([1]; read-out: Minimal Inhibitory Concentration, MSSA isolate 1662, 03MAR06): 0.5 µg/mL
MIC ([1]; read-out: Minimal Inhibitory Concentration, MSSA isolate 1663, 03MAR06): 1 µg/mL
MIC ([1]; read-out: Minimal Inhibitory Concentration, MSSA isolate 1666, 03MAR06): 0.5 µg/mL
MIC ([1]; read-out: Minimal Inhibitory Concentration, MSSA isolate 1667, 03MAR06): 1 µg/mL
MIC ([1]; read-out: Minimal Inhibitory Concentration, MSSA isolate 1668, 03MAR06): 0.5 µg/mL
MIC ([1]; read-out: Minimal Inhibitory Concentration, MSSA isolate 1671, 03MAR06): 1 µg/mL
MIC ([1]; read-out: Minimal Inhibitory Concentration, MSSA isolate 1728, 03MAR06): 1 µg/mL
MIC ([1]; read-out: Minimal Inhibitory Concentration, MSSA isolate 1728, retest 09MAR06): 1 µg/mL
MIC Range ([2]; 52 MRSA isolates, combinations at 2.5:1, given as NB/partner): .5 to 2 µg/mL
MIC ([2]; read-out: Minimal Inhibitory Concentration, MRSA isolate 757, 24FEB06): 1 µg/mL
MIC ([2]; read-out: Minimal Inhibitory Concentration, MRSA isolate 758, 03MAR06): 1 µg/mL
MIC ([2]; read-out: Minimal Inhibitory Concentration, MRSA isolate 758, 24FEB06): 1 µg/mL
MIC ([2]; read-out: Minimal Inhibitory Concentration, MRSA isolate 760, 03MAR06): 1 µg/mL
MIC ([2]; read-out: Minimal Inhibitory Concentration, MRSA isolate 760, 24FEB06): 1 µg/mL
